Measured values reported in doi:10.1101/2025.02.11.637513v1 (bioRxiv, 2025).
“And” between values parts separate entries of the source, which are not always exact repeats. Equal entries are not always repeated. Non-standard residues stand in square brackets, D forms with d. No end group written: not given here. *: point of attachment. Phe(F5) = N[C@@H](Cc1c(F)c(F)c(F)c(F)c1F)C(=O)O; Bip = N[C@@H](Cc1ccc(-c2ccccc2)cc1)C(=O)O; Phe(4-Cl) = N[C@@H](Cc1ccc(Cl)cc1)C(=O)O; Phe(2-Cl) = N[C@@H](Cc1ccccc1Cl)C(=O)O; 1Nal = N[C@@H](Cc1cccc2ccccc12)C(=O)O; 2Nal = N[C@@H](Cc1ccc2ccccc2c1)C(=O)O; Met(O2) = CS(=O)(=O)CC[C@H](N)C(=O)O; Tic = O=C(O)[C@@H]1Cc2ccccc2CN1; Cha = N[C@@H](CC1CCCCC1)C(=O)O; Phg = N[C@H](C(=O)O)c1ccccc1; Tle = CC(C)(C)[C@H](N)C(=O)O; Abu = CC[C@H](N)C(=O)O; Bn = c1ccc(C*)cc1

What was measured:
Test in all cases: tetrapeptide-ACC substrate cleavage kinetics
Format in all cases: biochemical
human caspase-1 = biological target: T1, human caspase-1 (Homo sapiens, UniProt P29466); conditions: Ac-P4-P3-P2-Asp-ACC substrate, 0.05-500 μM, 2-15 nM enzyme, 37°C, triplicate
T1 sequence (P29466 120-297 limits assumed): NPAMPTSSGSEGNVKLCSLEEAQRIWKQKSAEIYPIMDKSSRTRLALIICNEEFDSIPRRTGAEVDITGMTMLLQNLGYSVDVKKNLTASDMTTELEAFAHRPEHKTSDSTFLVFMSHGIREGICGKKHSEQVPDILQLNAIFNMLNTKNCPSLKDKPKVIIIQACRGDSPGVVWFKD
T1 sequence (P29466 317-404 limits assumed): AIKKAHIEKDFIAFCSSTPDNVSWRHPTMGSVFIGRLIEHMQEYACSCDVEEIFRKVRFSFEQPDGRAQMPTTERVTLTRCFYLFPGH

human caspase-4 = biological target: T2, human caspase-4 (Homo sapiens, UniProt P49662); conditions: Ac-P4-P3-P2-Asp-ACC substrate, 0.05-500 μM, 35-200 nM enzyme, 37°C, triplicate
T2 sequence (P49662 81-270 limits assumed): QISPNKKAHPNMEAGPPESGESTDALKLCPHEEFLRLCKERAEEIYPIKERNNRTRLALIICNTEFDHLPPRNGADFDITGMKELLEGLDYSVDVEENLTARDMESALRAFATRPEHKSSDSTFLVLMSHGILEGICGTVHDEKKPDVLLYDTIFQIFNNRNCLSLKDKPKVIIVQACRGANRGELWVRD
T2 sequence (P49662 290-377 limits assumed): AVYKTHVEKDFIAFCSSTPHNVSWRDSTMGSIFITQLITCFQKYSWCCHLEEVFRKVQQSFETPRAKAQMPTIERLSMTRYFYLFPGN

human caspase-5 = biological target: T3, human caspase-5 (Homo sapiens, UniProt P51878); conditions: Ac-P4-P3-P2-Asp-ACC substrate, 0.05-500 μM, 20-250 nM enzyme, 37°C, triplicate
T3 sequence (P51878 137-327 limits assumed): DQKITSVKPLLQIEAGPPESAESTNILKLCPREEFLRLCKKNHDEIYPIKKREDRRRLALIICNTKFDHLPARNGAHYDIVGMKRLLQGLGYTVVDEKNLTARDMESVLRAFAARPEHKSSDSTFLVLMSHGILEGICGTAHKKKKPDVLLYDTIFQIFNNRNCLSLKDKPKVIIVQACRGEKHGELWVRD
T3 sequence (P51878 347-434 limits assumed): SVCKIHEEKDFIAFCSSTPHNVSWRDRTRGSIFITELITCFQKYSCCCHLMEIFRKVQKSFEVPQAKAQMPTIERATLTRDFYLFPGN

human caspase-3 = biological target: T4, human caspase-3 (Homo sapiens, UniProt P42574); conditions: Ac-P4-P3-P2-Asp-ACC substrate, 0.05-500 μM, 3-35 nM enzyme, 37°C, triplicate
T4 sequence (P42574 29-175 limits assumed): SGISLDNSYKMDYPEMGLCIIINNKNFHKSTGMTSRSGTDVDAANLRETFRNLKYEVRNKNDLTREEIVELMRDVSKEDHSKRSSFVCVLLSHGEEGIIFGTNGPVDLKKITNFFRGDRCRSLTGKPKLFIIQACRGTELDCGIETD
T4 sequence (P42574 176-277 limits assumed): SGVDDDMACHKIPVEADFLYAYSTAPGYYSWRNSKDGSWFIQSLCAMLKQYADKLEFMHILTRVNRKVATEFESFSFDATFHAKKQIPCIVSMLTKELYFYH

human caspase-7 = biological target: T5, human caspase-7 (Homo sapiens, UniProt P55210); conditions: Ac-P4-P3-P2-Asp-ACC substrate, 0.05-500 μM, 40-400 nM enzyme, 37°C, triplicate
T5 sequence (P55210 24-198 limits assumed): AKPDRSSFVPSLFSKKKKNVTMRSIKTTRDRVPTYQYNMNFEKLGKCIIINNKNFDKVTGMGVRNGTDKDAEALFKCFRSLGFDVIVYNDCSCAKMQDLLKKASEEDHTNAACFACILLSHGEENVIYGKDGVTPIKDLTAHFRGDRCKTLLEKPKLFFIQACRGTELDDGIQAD
T5 sequence (P55210 207-303 limits assumed): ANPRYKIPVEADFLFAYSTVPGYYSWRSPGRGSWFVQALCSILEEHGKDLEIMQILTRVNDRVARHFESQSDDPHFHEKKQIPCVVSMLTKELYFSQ

human caspase-8 = human caspase-8 (Homo sapiens, UniProt Q14790); conditions: Ac-P4-P3-P2-Asp-ACC substrate, 0.05-500 μM, 6-42 nM enzyme, 37°C, triplicate
human caspase-9 = biological target: T6, human caspase-9 (Homo sapiens, UniProt P55211); conditions: Ac-P4-P3-P2-Asp-ACC substrate, 0.05-500 μM, 20-150 nM enzyme, 37°C, triplicate
T6 sequence (P55211 1-315 limits assumed): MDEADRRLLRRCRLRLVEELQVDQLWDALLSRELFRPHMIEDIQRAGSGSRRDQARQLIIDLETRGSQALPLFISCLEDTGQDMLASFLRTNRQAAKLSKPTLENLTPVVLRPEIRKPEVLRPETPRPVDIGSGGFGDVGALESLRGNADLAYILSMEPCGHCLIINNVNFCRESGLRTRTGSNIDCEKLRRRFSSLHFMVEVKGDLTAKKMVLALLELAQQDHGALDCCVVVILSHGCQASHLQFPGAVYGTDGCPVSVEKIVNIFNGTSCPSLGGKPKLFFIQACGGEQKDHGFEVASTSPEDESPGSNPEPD
T6 sequence (P55211 331-416 limits assumed): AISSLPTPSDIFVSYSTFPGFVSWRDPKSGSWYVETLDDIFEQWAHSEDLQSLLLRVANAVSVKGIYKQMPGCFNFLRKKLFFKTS

Chain of human caspase-8 (Q14790 217-374 limits assumed): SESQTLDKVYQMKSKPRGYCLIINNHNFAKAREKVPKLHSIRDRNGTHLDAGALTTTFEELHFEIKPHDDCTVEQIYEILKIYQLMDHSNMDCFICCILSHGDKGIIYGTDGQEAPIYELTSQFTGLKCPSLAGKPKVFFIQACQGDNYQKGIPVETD
Chain of human caspase-8 (Q14790 385-479 limits assumed): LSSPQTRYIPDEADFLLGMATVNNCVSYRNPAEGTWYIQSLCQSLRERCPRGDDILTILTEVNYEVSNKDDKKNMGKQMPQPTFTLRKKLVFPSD

Row | Substance | kcat/KM caspase-1 (human caspase-1) | kcat/KM caspase-4 (human caspase-4) | kcat/KM caspase-5 (human caspase-5) | kcat/KM caspase-3 (human caspase-3) | kcat/KM caspase-7 (human caspase-7) | kcat/KM caspase-8 (human caspase-8) | kcat/KM caspase-9 (human caspase-9)
1 | W[Met(O2)]HD | 547 600 M^-1s^-1 | 9 620 M^-1s^-1 | 15 430 M^-1s^-1 | 4 970 M^-1s^-1 | 60 M⁻¹ s⁻¹ | 2 380 M^-1s^-1 | 6 700 M^-1s^-1
2 | W[Tle]HD | 271 900 M^-1s^-1 | 10 640 M^-1s^-1 | 12 930 M^-1s^-1 | 600 M⁻¹ s⁻¹ | 40 M⁻¹ s⁻¹ | 1 240 M^-1s^-1 | 10 220 M^-1s^-1
3 | Y(Me)QTD | 105 200 M^-1s^-1 | 810 M⁻¹ s⁻¹ | 2 420 M^-1s^-1 | 8 740 M^-1s^-1 | 1 530 M^-1s^-1 | 2 670 M^-1s^-1 | 550 M⁻¹ s⁻¹
4 | YT(Bn)HD | 201 400 M^-1s^-1 | 1 260 M^-1s^-1 | 6 920 M^-1s^-1 | 4 500 M^-1s^-1 | 270 M⁻¹ s⁻¹ | 4 760 M^-1s^-1 | 7 970 M^-1s^-1
5 | Y[Phe(F5)]HD | 161 900 M^-1s^-1 | 2 270 M^-1s^-1 | 14 900 M^-1s^-1 | 8 500 M^-1s^-1 | 210 M⁻¹ s⁻¹ | 3 150 M^-1s^-1 | 7 300 M^-1s^-1
6 | [1Nal]Q[Abu]D | 168 100 M^-1s^-1 | 2 190 M^-1s^-1 | 4 640 M^-1s^-1 | 1 660 M^-1s^-1 | 220 M⁻¹ s⁻¹ | 4 420 M^-1s^-1 | 100 M⁻¹ s⁻¹
7 | [2Nal]THD | 146 200 M^-1s^-1 | 2 450 M^-1s^-1 | 7 860 M^-1s^-1 | 830 M⁻¹ s⁻¹ | 70 M⁻¹ s⁻¹ | 1 990 M^-1s^-1 | 5 660 M^-1s^-1
8 | [Cha]EHD | 184 300 M^-1s^-1 and 113 800 M^-1s^-1 | 21 340 M^-1s^-1 and 25 050 M^-1s^-1 | 34 640 M^-1s^-1 and 48 140 M^-1s^-1 | 6 390 M^-1s^-1 and 6 530 M^-1s^-1 | 370 M⁻¹ s⁻¹ and 380 M⁻¹ s⁻¹ | 28 040 M^-1s^-1 and 27 690 M^-1s^-1 | 8 770 M^-1s^-1 and 9 270 M^-1s^-1
9 | [Cha]E[Tic]D | 159 100 M^-1s^-1 | 37 900 M^-1s^-1 | 28 860 M^-1s^-1 | 10 440 M^-1s^-1 | 950 M⁻¹ s⁻¹ | 7 860 M^-1s^-1 | 7 760 M^-1s^-1
10 | [Phe(2-Cl)]E[Tic]D | 243 800 M^-1s^-1 | 15 180 M^-1s^-1 | 16 790 M^-1s^-1 | 75 860 M^-1s^-1 | 10 040 M^-1s^-1 | 13 980 M^-1s^-1 | 5 410 M^-1s^-1
11 | [Tle]MHD | 23 100 M^-1s^-1 | 2 020 M^-1s^-1 | 5 120 M^-1s^-1 | 20 740 M^-1s^-1 | 280 M⁻¹ s⁻¹ | 14 800 M^-1s^-1 | 8 360 M^-1s^-1
12 | [Tle][Bip]HD | 10 900 M^-1s^-1 | 2 820 M^-1s^-1 | 5 280 M^-1s^-1 | 16 920 M^-1s^-1 | 160 M⁻¹ s⁻¹ | 11 700 M^-1s^-1 | 8 430 M^-1s^-1
13 | [Tle][Phe(2-Cl)]HD | 31 900 M^-1s^-1 | 4 030 M^-1s^-1 | 6 990 M^-1s^-1 | 26 070 M^-1s^-1 | 350 M⁻¹ s⁻¹ | 6 220 M^-1s^-1 | 8 070 M^-1s^-1
14 | [Tle][Phe(4-Cl)]HD | 13 300 M^-1s^-1 | 2 500 M^-1s^-1 | 7 360 M^-1s^-1 | 21 330 M^-1s^-1 | 160 M⁻¹ s⁻¹ | 10 600 M^-1s^-1 | 9 100 M^-1s^-1
15 | [Tle][Phg]HD | 4 300 M^-1s^-1 | 320 M⁻¹ s⁻¹ | 490 M⁻¹ s⁻¹ | 6 710 M^-1s^-1 | 40 M⁻¹ s⁻¹ | 2 030 M^-1s^-1 | 9 870 M^-1s^-1
